The test system of data set [1] is human embryonic stem cell derived neural stem cells (NSCs). Briefly: Neural Stem Cell Proliferation Assay (neurogenesis assay, ATP levels by CellTiterGlo). In kind it is cell-based. Particulars: 96 h, compound concentration at which 150% activity of control (100%) is reached, NSC proliferation by ATP level after 4 days incubation, dose response 8 μM to 8 nM. The procedure, abridged:
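Read-out is CellTiterGlo ATP luminescence after 4-day culture (37 °C, 5% CO2) of dual-SMAD-derived human ESC NSCs, dosed 4 h post-seeding at 8 μM to 8 nM (11 points, 2-fold). EC150 marks the concentration reaching 150% of the media-only control (0.25% DMSO).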
For orientation: In ATP-based viability assays light output follows the ATP content of the culture.

As usually defined, the melting point is the temperature, or range, at which the solid turns liquid. `O=C1NCCn2c1c(C(F)(F)F)c1cc(Cl)cc(-c3ccc(Cl)cc3)c12` [Example 187, 8-Chloro-6-(4-chlorophenyl)-10-(trifluoromethyl)-3,4-dihydro-2H-pyrazino[1,2-a]indol-1-one] gave a melting point of 214 °C. Further, the EC (150% of control) in data set [1] came to 0.088 µM.

`Cc1c2n(c3c(-c4ccco4)cc(F)cc13)CCNC2=O` [Example 188, 8-Fluoro-6-(furan-2-yl)-10-methyl-3,4-dihydro-2H-pyrazino[1,2-a]indol-1-one] yielded a melting point of 236 °C. In data set [1], this compound gave an EC (150% of control) of 0.1 µM.

In turn, `N#Cc1cc(-c2cc(F)c(F)c(F)c2)c2c(c1)cc1n2CCNC1=O` [Example 189, 1-Oxo-6-(3,4,5-trifluorophenyl)-3,4-dihydro-2H-pyrazino[1,2-a]indole-8-carbonitrile] gave a melting point of 304.5 °C. Moreover, the EC (150% of control) in data set [1] was found to be 0.22 µM.

Consider `N#Cc1cc(-c2ccc(OC(F)(F)F)cc2)c2c(c1)cc1n2CCNC1=O` [Example 190, 1-Oxo-6-[4-(trifluoromethoxy)phenyl]-3,4-dihydro-2H-pyrazino[1,2-a]indole-8-carbonitrile], for which the melting point was found to be 311.5 °C. Besides, the EC (150% of control) in data set [1] was 0.037 µM.

Take `CS(=O)(=O)c1ccc(-c2cc(C#N)cc3cc4n(c23)CCNC4=O)cc1` [Example 191, 6-(4-Methylsulfonylphenyl)-1-oxo-3,4-dihydro-2H-pyrazino[1,2-a]indole-8-carbonitrile]: the melting point came to 329 °C. Also, the EC (150% of control) in data set [1] is 0.24 µM.

Turning to `N#Cc1cc(-c2ccc(Cl)c(Cl)c2)c2c(c1)cc1n2CCNC1=O` [Example 192, 6-(3,4-Dichlorophenyl)-1-oxo-3,4-dihydro-2H-pyrazino[1,2-a]indole-8-carbonitrile], the melting point was found to be 330.5 °C. Moreover, the EC (150% of control) in data set [1] was 0.13 µM.

Compound `N#Cc1cc(-c2cccc(Cl)c2)c2c(c1)cc1n2CCNC1=O` [Example 193, 6-(3-Chlorophenyl)-1-oxo-3,4-dihydro-2H-pyrazino[1,2-a]indole-8-carbonitrile] gave a melting point of 241.5 °C. The compound further showed an EC (150% of control) in data set [1] of 0.32 µM.

Consider `N#Cc1cccc(-c2cc(C#N)cc3cc4n(c23)CCNC4=O)c1` [Example 194, 6-(3-Cyanophenyl)-1-oxo-3,4-dihydro-2H-pyrazino[1,2-a]indole-8-carbonitrile], for which the melting point stood at 253 °C. For the same compound, the EC (150% of control) in data set [1] was found to be 1.08 µM.

Regarding `N#Cc1cc(-c2cccc(C(F)(F)F)c2)c2c(c1)cc1n2CCNC1=O` [Example 195, 1-Oxo-6-[3-(trifluoromethyl)phenyl]-3,4-dihydro-2H-pyrazino[1,2-a]indole-8-carbonitrile], the melting point is 279.5 °C. The same compound showed an EC (150% of control) in data set [1] of 1.4 µM.

Consider `Cc1c2n(c3c(-c4ccc(F)c(F)c4)cc(C#N)cc13)CCCNC2=O` [Example 196, 7-(3,4-Difluorophenyl)-11-methyl-1-oxo-2,3,4,5-tetrahydro-[1,4]diazepino[1,2-a]indole-9-carbonitrile], for which the melting point was found to be 278 °C. The compound further registered an EC (150% of control) in data set [1] of 0.086 µM.

In turn, `Cc1c2n(c3c(-c4ccc(C(F)(F)F)cc4)cc(C#N)cc13)CCCNC2=O` [Example 197, 11-Methyl-1-oxo-7-[4-(trifluoromethyl)phenyl]-2,3,4,5-tetrahydro-[1,4]diazepino[1,2-a]indole-9-carbonitrile] gave a melting point of 252 °C. The EC (150% of control) in data set [1] was determined as 0.14 µM.

On to `Cc1c2n(c3c(-c4ccc(F)cc4)cc(C#N)cc13)CCCNC2=O` [Example 198, 7-(4-Fluorophenyl)-11-methyl-1-oxo-2,3,4,5-tetrahydro-[1,4]diazepino[1,2-a]indole-9-carbonitrile], for which the melting point was 278 °C. The EC (150% of control) in data set [1] stood at 0.033 µM.

Take `Cc1c2n(c3c(-c4ccc(Cl)cc4)cc(C#N)cc13)CCCNC2=O` [Example 199, 7-(4-Chlorophenyl)-11-methyl-1-oxo-2,3,4,5-tetrahydro-[1,4]diazepino[1,2-a]indole-9-carbonitrile]: the melting point is 298 °C. Besides, the EC (150% of control) in data set [1] is 0.053 µM.

`Cc1c2n(c3c(-c4ccc(C#N)cc4)cc(C#N)cc13)CCCNC2=O` [Example 200, 7-(4-Cyanophenyl)-11-methyl-1-oxo-2,3,4,5-tetrahydro-[1,4]diazepino[1,2-a]indole-9-carbonitrile] showed a melting point of 314 °C. Further, the EC (150% of control) in data set [1] is 0.041 µM.

`Cc1c2n(c3c(-c4ccc(OC(F)(F)F)cc4)cc(C#N)cc13)CCCNC2=O` [Example 201, 11-Methyl-1-oxo-7-[4-(trifluoromethoxy)-phenyl]-2,3,4,5-tetrahydro-[1,4]diazepino[1,2-a]indole-9-carbonitrile] registered a melting point of 218 °C. Also, the EC (150% of control) in data set [1] is 0.048 µM.

On to `N#Cc1cc(-c2ccc(F)c(F)c2F)c2c(c1)cc1n2CCNC1=O` [Example 202, 1-Oxo-6-(2,3,4-trifluorophenyl)-3,4-dihydro-2H-pyrazino[1,2-a]indole-8-carbonitrile], for which the melting point amounted to 294 °C. In addition, in data set [1], the EC (150% of control) was 0.046 µM.

For the compound `N#Cc1cc(-c2ccc(F)nc2)c2c(c1)cc1n2CCNC1=O` [Example 203, 6-(6-Fluoropyridin-3-yl)-1-oxo-3,4-dihydro-2H-pyrazino[1,2-a]indole-8-carbonitrile], the melting point was determined as 268 °C. This compound also came in with an EC (150% of control) in data set [1] of 0.36 µM.

In turn, `N#Cc1cc(-c2ccc(Cl)c(C(F)(F)F)c2)c2c(c1)cc1n2CCNC1=O` [Example 204, 6-[4-Chloro-3-(trifluoromethyl)phenyl]-1-oxo-3,4-dihydro-2H-pyrazino[1,2-a]indole-8-carbonitrile] showed a melting point of 347 °C. The EC (150% of control) in data set [1] turned out to be 1.28 µM.

In the case of `Cc1c2n(c3c(-c4ccc(F)cc4F)cc(C#N)cc13)CCCNC2=O` [Example 205, 7-(2,4-Difluorophenyl)-11-methyl-1-oxo-2,3,4,5-tetrahydro-[1,4]diazepino[1,2-a]indole-9-carbonitrile], the melting point came to 225 °C. Moreover, the EC (150% of control) in data set [1] is 0.031 µM.

`Cc1c2n(c3c(-c4ccc(Cl)cc4Cl)cc(C#N)cc13)CCCNC2=O` [Example 206, 7-(2,4-Dichlorophenyl)-11-methyl-1-oxo-2,3,4,5-tetrahydro-[1,4]diazepino[1,2-a]indole-9-carbonitrile] had a melting point of 257 °C. Moreover, the EC (150% of control) in data set [1] is 0.031 µM.

With `Cc1c2n(c3c(-c4ccc(Cl)cc4F)cc(C#N)cc13)CCCNC2=O` [Example 207, 7-(4-Chloro-2-fluorophenyl)-11-methyl-1-oxo-2,3,4,5-tetrahydro-[1,4]diazepino[1,2-a]indole-9-carbonitrile], the melting point was found to be 259 °C. This compound displayed an EC (150% of control) in data set [1] of 0.019 µM.

Regarding `Cc1c2n(c3c(-c4ccnc(F)c4)cc(C#N)cc13)CCCNC2=O` [Example 208, 7-(2-Fluoropyridin-4-yl)-11-methyl-1-oxo-2,3,4,5-tetrahydro-[1,4]diazepino[1,2-a]indole-9-carbonitrile], the melting point was 264 °C. In data set [1], the EC (150% of control) stood at 0.049 µM.

For `Cc1c2n(c3c(-c4ccc(F)nc4)cc(C#N)cc13)CCCNC2=O` [Example 209, 7-(6-Fluoropyridin-3-yl)-11-methyl-1-oxo-2,3,4,5-tetrahydro-[1,4]diazepino[1,2-a]indole-9-carbonitrile], the melting point was determined as 280 °C. Further, in data set [1], the EC (150% of control) amounted to 0.16 µM.

With `COc1cc(-c2ccc(F)cc2)c2c(c1)cc1n2CCNC1=O` [Example 210, 6-(4-Fluorophenyl)-8-methoxy-3,4-dihydro-2H-pyrazino[1,2-a]indol-1-one], the melting point amounted to 220 °C. The same compound displayed an EC (150% of control) in data set [1] of 2.29 µM.

Turning to `COc1cc(-c2ccc(Cl)cc2)c2c(c1)cc1n2CCNC1=O` [Example 211, 6-(4-Chlorophenyl)-8-methoxy-3,4-dihydro-2H-pyrazino[1,2-a]indol-1-one], the melting point stood at 246 °C. For the same compound, in data set [1], the EC (150% of control) is 1.54 µM.

As for `COc1cc(-c2ccc(F)c(F)c2)c2c(c1)cc1n2CCNC1=O` [Example 212, 6-(3,4-Difluorophenyl)-8-methoxy-3,4-dihydro-2H-pyrazino[1,2-a]indol-1-one], the melting point worked out at 216 °C. Further, the EC (150% of control) in data set [1] was found to be 1.24 µM.

As to `COc1cc(-c2ccc(C(F)(F)F)cc2)c2c(c1)cc1n2CCNC1=O` [Example 213, 8-Methoxy-6-[4-(trifluoromethyl)-phenyl]-3,4-dihydro-2H-pyrazino[1,2-a]indol-1-one], the melting point came to 276 °C. This compound also displayed an EC (150% of control) in data set [1] of 0.8 µM.

In turn, `N#Cc1cc(-c2ccc(Cl)cc2)c2c(c1)cc1n2CCCNC1=O` [Example 214, 7-(4-Chlorophenyl)-1-oxo-2,3,4,5-tetrahydro-[1,4]diazepino[1,2-a]indole-9-carbonitrile] returned a melting point of 245.5 °C. Also, the EC (150% of control) in data set [1] came out at 0.14 µM.

The compound `N#Cc1cc(-c2ccc(F)cc2)c2c(c1)cc1n2CCCNC1=O` [Example 215, 7-(4-Fluorophenyl)-1-oxo-2,3,4,5-tetrahydro-[1,4]diazepino[1,2-a]indole-9-carbonitrile] gave a melting point of 230 °C. In addition, the EC (150% of control) in data set [1] came out at 0.09 µM.

Consider `O=C1NCCn2c1cc1cc(OC(F)(F)F)cc(-c3ccc(C(F)(F)F)cc3)c12` [Example 216, 8-(Trifluoromethoxy)-6-[4-(trifluoromethyl)-phenyl]-3,4-dihydro-2H-pyrazino[1,2-a]indol-1-one], for which the melting point amounted to 243 °C. The EC (150% of control) in data set [1] is 0.022 µM.

With `N#Cc1cc(-c2ccc(F)c(F)c2)c2c(c1)cc1n2CCCNC1=O` [Example 217, 7-(3,4-Difluorophenyl)-1-oxo-2,3,4,5-tetrahydro-[1,4]diazepino[1,2-a]indole-9-carbonitrile], the melting point is 224.5 °C. In data set [1], this compound yielded an EC (150% of control) of 0.51 µM.

Source of the values: US9284321B2, “Piperazino[1,2-a]indol-1-ones and [1,4]diazepino[1,2-a]indol-1-one” (Hoffmann-La Roche Inc., priority 2012, dated 2016).
